In the supplement of paper PMC10307832 one finds relative viability data, which are given here for ten cell lines.

Holding throughout (assay): relative viability (nuclei count vs DMSO), 5 days (fraction); higher = more cells survive
Compound in test [1]: CC[C@@H](C)CNCC(=O)N1CCC2=C([C@@H]1COC3=CC=CC(=C3)C)C=CS2 [RU-SKI 43]
The gist of the method: (§1)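 After an overnight hold at 37 °C, lung cancer cell lines in 1536-well plates were pinned with five library-drug doses (not always all listed), each √10 from the next, on vehicle-anchored plates. The cells stayed 5 days without fresh medium, then a one-step fix, permeabilisation and Hoechst stain preceded 4× imaging and MetaXpress nuclear counts. A plate passed only with control CV under 25% and at least one doubling. Viability is the median, over plates, of treated-well nuclei relative to vehicle-well nuclei.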

Compound in test [2]: CCc1c2c(nc3ccc(OC(=O)N4CCC(N5CCCCC5)CC4)cc13)-c1cc3c(c(=O)n1C2)COC(=O)[C@]3(O)CC [Irinotecan]
An outline of the steps:
as §1

Compound in test [3]: Cn1cc(-c2cnc3ccc4ccc(CS(=O)(=O)NCc5ccccn5)cc4c(=O)c3c2)cn1 [MK-8033]
The gist of the method:
as §1

Consider NCI-H838, for which the relative viability was found to be 0.97 in test [1] (0.1 µM); 0.965 in test [1] (0.3162 µM); 1.05 in test [1] (1 µM); 1 in test [1] (3.162 µM); 0.981 in test [1] (10 µM); 1.05 in test [2] (0.6325 µM). For the same cell line, the relative viability was determined as 1.02 in test [2] (2 µM); 0.526 in test [2] (6.325 µM); 0.316 in test [2] (20 µM); 0.954 in test [3] (0.02 µM); 0.923 in test [3] (0.06325 µM); 0.919 in test [3] (0.2 µM). Further, the relative viability in test [3] (0.6325 µM) was determined as 0.952; in test [3] (2 µM), 0.953.
For the cell line NCI-H1299, the relative viability in test [1] (0.1 µM) was found to be 1.02; in test [1] (0.3162 µM), 1.09; in test [1] (1 µM), 1.05; in test [1] (3.162 µM), 1.04; in test [1] (10 µM), 0.946; in test [2] (0.6325 µM), 0.799. Moreover, the relative viability in test [2] (2 µM) was found to be 0.738; in test [2] (6.325 µM) it was 0.489; in test [2] (20 µM), 0.283; in test [3] (0.02 µM), 1.01; in test [3] (0.06325 µM) it was 1.02; in test [3] (0.2 µM), 0.994. Besides, the results for the relative viability in test [3] (0.6325 µM) and in test [3] (2 µM) were 0.985 and 1, respectively.
As for NCI-H1355, the relative viability in test [1] (0.1 µM) is 1.02; in test [1] (0.3162 µM), 1.12; in test [1] (1 µM) it was 1.08; in test [1] (3.162 µM) it was 1.04; in test [1] (10 µM) it was 0.921; in test [2] (2 µM) it was 0.948. Also, the relative viability in test [2] (6.325 µM) worked out at 0.426; in test [2] (20 µM), 0.3; in test [3] (0.02 µM) it was 1.02; in test [3] (0.06325 µM), 0.894; in test [3] (0.2 µM), 0.914; in test [3] (0.6325 µM), 1.01. The relative viability in test [3] (2 µM) came to 0.992.
With NCI-H1395, the relative viability in test [1] (0.1 µM) worked out at 0.978; in test [1] (0.3162 µM) it was 0.928; in test [1] (1 µM), 1.05; in test [1] (3.162 µM) it was 0.899; in test [1] (10 µM), 0.885; in test [2] (2 µM), 0.9. Further, the relative viability was 0.504 in test [2] (6.325 µM); 0.411 in test [2] (20 µM); 0.941 in test [3] (0.02 µM); 0.77 in test [3] (0.06325 µM); 0.812 in test [3] (0.2 µM); 0.906 in test [3] (0.6325 µM). The relative viability in test [3] (2 µM) turned out to be 0.867.
Consider NCI-H1437, for which the relative viability in test [1] (0.1 µM) came out at 1.07; in test [1] (0.3162 µM), 1.04; in test [1] (1 µM), 1.14; in test [1] (3.162 µM) it was 1.04; in test [1] (10 µM), 0.986; in test [2] (0.6325 µM), 0.824. Besides, the relative viability in test [2] (2 µM) was found to be 0.719; in test [2] (6.325 µM), 0.426; in test [2] (20 µM), 0.289; in test [3] (0.02 µM) it was 0.964; in test [3] (0.06325 µM), 0.972; in test [3] (0.2 µM) it was 0.919. Also, the figures for the relative viability in test [3] (0.6325 µM) and in test [3] (2 µM) were 1.01 and 0.93, respectively.
Regarding NCI-H1563, the relative viability was found to be 0.965 in test [1] (0.1 µM); 0.928 in test [1] (0.3162 µM); 0.966 in test [1] (1 µM); 1.06 in test [1] (3.162 µM); 0.852 in test [1] (10 µM); 1.02 in test [2] (0.6325 µM). Moreover, the relative viability was 1.01 in test [2] (2 µM); 0.974 in test [2] (6.325 µM); 0.601 in test [2] (20 µM); 0.975 in test [3] (0.02 µM); 0.918 in test [3] (0.06325 µM); 0.927 in test [3] (0.2 µM). The relative viability in test [3] (0.6325 µM) was determined as 0.988; in test [3] (2 µM) it was 0.98.
With NCI-H1623, the relative viability amounted to 1.02 in test [1] (0.1 µM); 0.958 in test [1] (0.3162 µM); 1.03 in test [1] (1 µM); 1.06 in test [1] (3.162 µM); 0.883 in test [1] (10 µM); 0.866 in test [2] (0.6325 µM). Moreover, the relative viability was found to be 0.703 in test [2] (2 µM); 0.275 in test [2] (6.325 µM); 0.297 in test [2] (20 µM); 0.87 in test [3] (0.02 µM); 0.96 in test [3] (0.06325 µM); 0.839 in test [3] (0.2 µM). Further, the relative viability worked out at 0.992 in test [3] (0.6325 µM) and 1.02 in test [3] (2 µM).
Regarding NCI-H1648, the relative viability in test [1] (0.1 µM) stood at 0.943; in test [1] (0.3162 µM) it was 0.809; in test [1] (1 µM), 1.03; in test [1] (3.162 µM), 0.853; in test [1] (10 µM) it was 0.779; in test [2] (0.6325 µM), 1.03. The relative viability in test [2] (2 µM) came to 0.712; in test [2] (6.325 µM), 0.637; in test [2] (20 µM), 0.278; in test [3] (0.02 µM), 0.724; in test [3] (0.06325 µM), 0.698; in test [3] (0.2 µM) it was 0.846. The relative viability in test [3] (0.6325 µM) turned out to be 0.832; in test [3] (2 µM), 0.956.
On to NCI-H1650, for which the relative viability in test [1] (0.1 µM) stood at 0.942; in test [1] (0.3162 µM) it was 0.999; in test [1] (1 µM), 1.04; in test [1] (3.162 µM) it was 0.977; in test [1] (10 µM), 0.853; in test [2] (0.6325 µM), 0.677. For the same cell line, the relative viability in test [2] (2 µM) turned out to be 0.836; in test [2] (6.325 µM), 0.489; in test [2] (20 µM), 0.21; in test [3] (0.02 µM) it was 0.942; in test [3] (0.06325 µM) it was 0.714; in test [3] (0.2 µM) it was 0.853. The relative viability in test [3] (0.6325 µM) is 0.842; in test [3] (2 µM), 0.848.
NCI-H1651: the relative viability amounted to 0.931 in test [1] (0.1 µM); 1.01 in test [1] (0.3162 µM); 1.08 in test [1] (1 µM); 1.09 in test [1] (3.162 µM); 0.927 in test [1] (10 µM); 0.676 in test [2] (0.6325 µM). The relative viability in test [2] (2 µM) turned out to be 0.779; in test [2] (6.325 µM), 0.458; in test [2] (20 µM) it was 0.172; in test [3] (0.02 µM), 1.01; in test [3] (0.06325 µM) it was 0.944; in test [3] (0.2 µM), 0.934. Moreover, the figures for the relative viability in test [3] (0.6325 µM) and in test [3] (2 µM) were 1.06 and 0.971, respectively.
